Assay results published in US4224199A, “Somatostatin analogs having a substituted tryptophyl residue in position eight” (priority 1978, dated 1980).

System: rat anterior pituitary cells
Assay: in vitro inhibition of growth hormone release from dispersed rat anterior pituitary cells (radioimmunoassay)
Assay type: cell-based
Conditions: rat anterior pituitary cells 4 days in culture, incubated 5 hours at 37° C., potency from ED50 relative to somatostatin
Description: Meyers et al., Biochem. Biophys. Res. Commun., 74, 630(1977). In this method, the tetradecapeptides of this invention are shown to inhibit the release of radioimmunoassayable growth hormone in vitro from enzymatically dispersed rat anterior pituitary cells prepared as described by F. Labrie et al., Sixth Karolinska Symp. on Res. Meth. in Reprod. Endocrinol. (W. Dozfalusy, Ed.), pp 301-328(1973). Following four days in culture, the cells are washed and incubated for five hours at 37° C. in Dulbecco-modified Eagle's medium in the presence or absence of increasing concentrations of each tetradecapeptide analog. Growth hormone levels are determined by double antibody radioimmunoassay, method described by C. A. Birge et al., Endocrinol., 81, 195-204(1967), for rat growth hormone using the NIAMDD Rat GH RIA kit. The dose required for a 50% inhibition of growth hormone release (ED50) is calculated for each analog by the method of D. Rodbard, Endocrinol., 94, 1427-1437(1974). The potency of the tetradecapeptide analogs of this invention relative to somatostatin is illustrated in table I.

## C[C@H](N)C(=O)NCC(=O)N[C@H]1CSSC[C@@H](C(=O)O)NC(=O)[C@H](CO)NC(=O)[C@H]([C@@H](C)O)NC(=O)[C@H](Cc2ccccc2)NC(=O)[C@H]([C@@H](C)O)NC(=O)[C@H](CCCCN)NC(=O)[C@@H](Cc2c[nH]c3ccc(F)cc23)NC(=O)[C@H](Cc2ccccc2)NC(=O)[C@H](Cc2ccccc2)NC(=O)[C@H](CC(N)=O)NC(=O)[C@H](CCCCN)NC1=O [Example D-5-F-Trp, cyclic[3-14 disulfide] of L-alanyl-glycyl-L-cysteinyl-L-lysyl-L-asparaginyl-L-phenylalanyl-L-phenylalanyl-D-5-fluorotryptophyl-L-lysyl-L-threonyl-L-phenylalanyl-L-threonyl-L-seryl-L-cysteine]
  Growth Hormone Release-Inhibiting Activity, Relative to Somatostatin: 2499%

## cyclic[3-14 disulfide] of L-alanyl-glycyl-L-cysteinyl-L-asparaginyl-L-lysyl-L-phenylalanyl-L-phenylalanyl-L-5-fluorotryptophyl-L-lysyl-L-threonyl-L-phenylalanyl-L-threonyl-L-seryl-L-cysteine [Example L-5-F-Trp]
  Growth Hormone Release-Inhibiting Activity, Relative to Somatostatin: 476%
